Measurements as given in US8940748B2, “Iminothiadiazine dioxide compounds as BACE inhibitors, compositions, and their use” (Merck Sharp & Dohme Corp., priority 2009, dated 2015).
Like-named read-outs stand apart in the source and are kept apart here.

Experiments:
[1] = Caco-2 bi-directional permeability; format: in vitro ADME; conditions: human, Caco-2; permeability apical to basolateral; read-out: Caco-2 AP→BL
Description: (§1) The bi-directional permeability with efflux potential of selected compounds of the invention vs. otherwise structurally identical iminopyrimidinones (collectively referred to as test compounds, shown in the table below) were assessed using Caco-2 cell line. The Caco-2 cells were maintained in DMEM (Dulbecco's Modified Eagle Medium) containing 10% fetal bovine serum, 1% non-essential amino acids, 2 mM L-glutamine, and 1% penicillin-streptomycin in an incubator at ˜37° C. in an atmosphere of 5% CO2 and about 90% relative humidity. The cell culture medium was changed three times weekly. Caco-2 cell monolayers were grown on polyethylene terephthalate filters using 24-well BD Falcon™ Cell Culture Insert Plates (0.33 cm^2 insert area, 1 μm pore size; BD BioSciences, Bedford, Mass.). The culture medium of the plate was changed every other day until used for the transport experiment (21-28 days post seeding).
(§2) The transport buffer (TM) was Hank's balanced salt solution (HBSS) with 10 mM HEPES and 25 mM glucose (pH 7.4) for dosing and TM with 4% bovine serum albumin for receiver (pH 7.4). The bi-directional permeability of the test compounds were tested at concentrations of 1, 10 and 100 μM was measured in triplicate with 2-hr incubation. The cell monolayer integrity was monitored with pre- and post-experimental trans-epithelial electrical resistance and post-experimental Lucifer Yellow (LY) permeability with 1 hr incubation.
(§3) The apparent permeability, recovery and efflux ratio values were calculated using the following equations:
(§4) where, • dCR/dt: The slope of the accumulative concentration in the receiver compartment versus time incubation (μM·s^−1) • C0hr: Donor concentration (μM) immediately after dosing • CD, final: Donor concentration (μM) at the end of incubation • S: Membrane surface area (cm^2) • VD: Volume of donor compartment (mL) • VR: Volume of receiver compartment (mL) • Papp-BLtoAP: Permeability from basolateral (BL) to apical (AP) transport

[2] = system: endogenous rat Aβ1-40 (Aβ40) in cortex; experiment: Cortical Aβ40 in rats after oral dosing (Luminex-based immunodetection); format: in vivo; conditions: read-out: Change in rat cortex Aβ40
Description: The following procedures were used.
Male CD rats (˜100 g; Crl:CD(SD); Charles River Laboratories, Kingston, N.Y.) were group housed and acclimated to the vivarium for 5-7 days prior to use in a study. Compounds were formulated in 20% hydroxypropyl-β-cyclodextrin and administered orally with a dosing volume of 5 ml/kg for rats. Three h after drug administration, rats were euthanized with excess CO2. The brain was removed from the skull and immediately frozen on dry ice. All tissues were stored at −70° C. until Aβ quantification.
Ab585 was labeled with biotin (b-Ab585) by first dialyzing the antibody sample extensively versus PBS (pH 7.8) to remove impurities, followed by dilution to between 1 and 2 mg/mL protein concentration. EZ-Link Sulfo-NHS-LC-Biotin (Pierce) was dissolved in PBS (pH 7.8) at a concentration of 1 mg/mL immediately prior to use. Ab585 was labeled with EZ-Link Sulfo-NHS-LC-biotin using a 10:1 biotin:antibody ratio by incubation at room temperature for 1 hour. The labeling reaction was quenched by addition of 1.0 M glycine to a final concentration of 0.1 M followed by 10 minute incubation at room temperature. Glycine was removed by extensive dialysis versus PBS.
The antibody was coupled to the beads using the Bio-Plex Amine Coupling Kit (Bio-Rad) as per the manufacturer's recommendations.
Rat cortex Aβ40 levels were measured from guanidine HCl extracts of individual rat cortices using a Luminex-based immunodetection assay. Rat brains were thawed briefly at 37° C. and both mid- and hindbrain regions were removed. The remaining material, consisting primarily of cortex (˜800 mg) was carried through the guanidine extraction procedure. Cortices were added to a 2 ml BioPur tube (Eppendorf) along with a 6.35 mm chrome-coated steel ball and 1.0 ml of sucrose homogenization buffer (20 mM HEPES [pH 7.5], 50 mM KCl, 50 mM sucrose, 2 mM EDTA, 2 mM EGTA supplemented with complete protease inhibitors [Roche, EDTA-free]). Samples were then homogenized by agitation for 1.5 min at 30 cycles/sec in a MM300 tissue mixer (Retsch®). The resulting cortical homogenate was extracted with guanidine-HCl by mixing 67 μl of homogenate with 133 μl of 5 M Guanidine HCl, 50 mM Tris HCl (pH 8.0). To maximize the efficiency of Aβ extraction, samples were vortexed and then sonicated for 2 minutes in an ice bath using an Ultrasonics XL cup horn sonicator at a power setting of 8 (Heat Systems, Inc.). Insoluble material was removed by ultracentrifugation using a using a TLA-55 rotor in a TL-100 benchtop centrifuge (Beckman) at 100,000×g for 30 minutes. The resulting supernatant was then either diluted 1:10 in 5 M guanidine HCl, 0.05 M Tris HCl (pH 8.0) for protein analysis (BCA protein assay, Pierce Biochemicals) or assayed neat for Aβ40 levels. The Luminex rodent Aβ40 assay was performed as follows. First, 96 well filter binding plates (Millipore, catalogue # MSBVN12) were wetted with 100 μl of 1×LAβ40 buffer (0.05 M HEPES [pH 7.5], 0.2% BSA, 0.2% Tween-20, 0.15 M NaCl) by vacuum filtration on a Millipore 96-well manifold. The plate bottom was sealed and 100 μl of 1×LAβ40 buffer was added to each well followed by addition of 50 μl each of G2-10:COOH beads (1000 beads/well) and 50 μl b-Ab585 at 0.5 μg/ml in 1×LAβ40 buffer. Guanidine HCl was added to synthetic rodent Aβ40 standards in order to control for the effect of guanidine in brain extracts on the assay performance. Ten microliters of cortical extract, rodent Aβ40 standards or cortical extract from amyloid precursor protein knockout mice (to define background immunoreactivity) was added to each well. Plates were covered and incubated overnight at 4° C. Following the incubation, wells were cleared by vacuum and washed twice with 100 μl of 1×LAβ40 buffer on a Millipore manifold.

[3] = target: soluble human BACE1 catalytic domain (Homo sapiens (Human), UniProt P56817); experiment: BACE1 HTRF FRET assay; format: biochemical; conditions: Ki calculated from IC50 using the Cheng-Prusoff equation; read-out: BACE-1 Ki
Sequence of soluble human BACE1 catalytic domain (P56817 75-416): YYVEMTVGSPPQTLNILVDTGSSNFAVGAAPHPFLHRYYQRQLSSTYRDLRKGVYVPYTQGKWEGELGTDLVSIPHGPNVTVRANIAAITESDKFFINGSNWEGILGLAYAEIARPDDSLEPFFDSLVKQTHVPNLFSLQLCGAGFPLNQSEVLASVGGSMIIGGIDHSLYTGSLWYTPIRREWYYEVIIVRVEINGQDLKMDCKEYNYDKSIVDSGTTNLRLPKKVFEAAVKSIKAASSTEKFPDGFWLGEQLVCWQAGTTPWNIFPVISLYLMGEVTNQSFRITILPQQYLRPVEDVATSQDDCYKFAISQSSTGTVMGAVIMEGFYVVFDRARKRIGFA

[4] = target: purified human autoBACE-2 (Homo sapiens (Human), UniProt Q9Y5Z0); experiment: BACE-2 assay (BACE-HTRF, time-resolved endpoint proteolysis); format: biochemical; conditions: Ki calculated from IC50 using the Cheng-Prusoff equation
Sequence of purified human autoBACE-2 (Q9Y5Z0 63-473 limits assumed): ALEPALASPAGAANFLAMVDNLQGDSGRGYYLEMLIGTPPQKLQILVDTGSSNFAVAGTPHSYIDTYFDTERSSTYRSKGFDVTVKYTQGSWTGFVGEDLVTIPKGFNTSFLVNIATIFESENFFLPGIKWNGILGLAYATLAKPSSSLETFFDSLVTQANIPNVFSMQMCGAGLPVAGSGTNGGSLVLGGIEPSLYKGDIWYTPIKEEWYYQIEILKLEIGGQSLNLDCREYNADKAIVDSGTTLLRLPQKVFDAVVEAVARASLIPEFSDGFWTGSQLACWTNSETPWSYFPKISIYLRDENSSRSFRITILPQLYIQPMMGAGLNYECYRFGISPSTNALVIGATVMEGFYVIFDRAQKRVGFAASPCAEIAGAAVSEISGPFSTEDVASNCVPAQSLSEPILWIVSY
Description: Inhibitor IC50s at purified human autoBACE-2 were determined in a time-resolved endpoint proteolysis assay that measures hydrolysis of the QSY7-[sequence]-Eu-amide FRET peptide substrate (BACE-HTRF assay). […] DMSO was present at 5% final concentration in the assay. Following laser excitation of sample wells at 320 nm, the fluorescence signal at 620 nm was collected for 400 ms following a 50 μs delay on a RUBYstar HTRF plate reader (BMG Labtechnologies). Raw RFU data was normalized to maximum (1.0 nM BACE/DMSO) and minimum (no enzyme/DMSO) RFU values. […] The Ki values were calculated from the IC50 using the Cheng-Prusoff equation.

P-gp = experiment: Caco-2 bi-directional permeability; format: in vitro ADME; conditions: human, Caco-2
Description: as §1, §2, §3, §4

Caco-2 cell line = experiment: Caco-2 bi-directional permeability; format: in vitro ADME; conditions: permeability apical to basolateral
Description: as §1, §2, §3, §4

[5] = Solution stability, Example B (50 mM pH 7.4 phosphate buffer, 25° C., LC/MS); format: physicochemical
Description: Stock solutions of the tested compounds were prepared by dissolving about 3 mg of each compound in 3 mL of acetonitrile. Standards for test compounds were prepared by diluting 1 mL of the stock solution with an additional 4 mL of acetonitrile. These standards were stored at 4° C. Samples were prepared by diluting 1 mL of the stock solution with 4 mL of 50 mM pH 7.4 phosphate buffer. These samples were stored at 25° C. in the absence of light. Standards and samples were analyzed by LC/MS initially and at day 1, day 4, and day 6.
Mobile phase A: 10 mM pH 5 ammonium acetate buffer:methanol (90:10)
Mobile phase B: 10 mM pH 5 ammonium acetate buffer:methanol (10:90)
Column: Zorbax SB-Phenyl 4.6×50 mm, 1.8 μm
Column temperature: 40° C.
Area % is the integration of peak from HPLC as reported by Waters Empower II software.
In the following study, the solution stability of the compound of Example 47 was measured and compared to that of Compound Y. The compound of Example 47 is an iminothiadiazine dioxide compound of the invention. Compound Y is the corresponding iminopyrimidinone compound. The structures of the compound of Example 47 and of Compound Y are shown below. Studies were performed in pH 7.4 buffer at 25° C.

[6] = Solution stability, Example A (pH 7.4 phosphate buffer/MeOH, LC/MS); format: physicochemical; conditions: for degredation: aqueous pH 7.4 buffer containing methanol
Description: A 1.05 mg/mL stock solution (5 mL) of Ex. 45 in MeOH was prepared. From the stock solution was taken out 1.25 mL and diluted to 25 mL with the addition of 23.75 mL of 10 mM phosphate buffer (pH 7.4)/MeOH (70/30 v/v). This new solution was split into three. One solution was incubated at 4° C., another incubated at 25° C. and the third incubated at 40° C. Each solution was analyzed by LC/MS after day 1, day 2 and day 6 and compared to a standard calibration curve for Ex. 45.
In the following study, the solution stability of the compound of Example 45 was measured and compared to that of Compound Z. The compound of Example 45 is an iminothiadiazine dioxide compound of the invention. Compound Z is the corresponding iminopyrimidinone compound. The structures of the compound of Example 45 and of Compound Z are shown below. Studies were performed in aqueous pH 7.4 buffer containing methanol at 4° C., 25° C. and 40° C.

[7] = rats, 3 h after a 10 mg/kg oral dose, vs vehicle cohort
[8] = Standard (in acetonitrile, stored at 4° C.)
[9] = pH 7.4, 40° C., last column without time heading

## CC#Cc1cncc(-c2cc(Cl)c([C@]3(C)CC(=O)N(C)C(=N)N3)s2)c1 [Iminopyrimidinone 52, reference compound]
[1]
  Papp A→B at 2 h: 15.3 ×10⁻⁶ cm/s

## COc1cnc(C(=O)Nc2ccc(F)c([C@]3(C)CS(=O)(=O)N(C)C(=N)N3)c2)cn1 [Example 40ai]
[2]; [7]
  change in vivo at 10 mg/kg: -51%
[3]
  Ki: 1.64 nM
[4]
  Ki: 1.99 nM
P-gp
  efflux ratio at 2 h: 1.8

## Cc1cnc(C(=O)Nc2ccc(F)c([C@]3(C)CS(=O)(=O)N(C)C(=N)N3)c2)cn1 [Example 36]
[2]; [7]
  change in vivo at 10 mg/kg: -25%
[3]
  Ki: 10 nM
[4]
  Ki: 4.85 nM
P-gp
  efflux ratio at 2 h: 3.3

## Cc1cnc(C(=O)Nc2ccc(F)c([C@]3(C)CC(=O)N(C)C(=N)N3)c2)cn1 [Iminopyrimidinone 36]
P-gp
  efflux ratio at 2 h: 12.9
[1]
  Papp A→B at 2 h: 1.1 ×10⁻⁶ cm/s

## CN1C(=N)N[C@](C)(c2c(F)ccc(NC(=O)c3ccc(F)cn3)c2F)CC1=O [Iminopyrimidinone 173]
[2]; [7]
  change in vivo at 10 mg/kg: -3%
P-gp
  efflux ratio at 2 h: 6.1
[1]
  Papp A→B at 2 h: 2.5 ×10⁻⁶ cm/s

## Cc1ccc(C(=O)Nc2ccc(F)c([C@]3(C)CC(=O)N(C)C(=N)N3)c2)nc1 [Iminopyrimidinone 35]
Caco-2 cell line
  Caco-2 AP→BL: 0 nm/s

## CN1C(=N)N[C@](C)(c2cc(NC(=O)c3ccc(Cl)cn3)ccc2F)CS1(=O)=O [Example 34]
[2]; [7]
  change in vivo at 10 mg/kg: -51%
[3]
  Ki: 0.949 nM
[4]
  Ki: 0.22 nM
P-gp
  efflux ratio at 2 h: 3.1

## CN1C(=N)N[C@](C)(c2cc(NC(=O)c3ccc(F)cn3)ccc2F)CC1=O [Iminopyrimidinone 25]
[2]; [7]
  change in vivo at 10 mg/kg: -11%
P-gp
  efflux ratio at 2 h: 10.6
[1]
  Papp A→B at 2 h: 2.2 ×10⁻⁶ cm/s

## CN1C(=N)N[C@](C)(c2c(F)ccc(NC(=O)c3ccc(F)cn3)c2F)CS1(=O)=O [Example 173]
[2]; [7]
  change in vivo at 10 mg/kg: -27%
[1]
  Papp A→B at 2 h: 12.6 ×10⁻⁶ cm/s

## CN1C(=N)N[C@](C)(c2cc(NC(=O)c3ccc(Cl)cn3)ccc2F)CC1=O [Iminopyrimidinone 34, reference compound]
[2]; po, 3 h
  change in vivo at 10 mg/kg: -19%
Caco-2 cell line
  Caco-2 AP→BL: 0 nm/s

## COc1cnc(C(=O)Nc2cc(F)c(F)c([C@]3(C)CS(=O)(=O)N(C)C(=N)N3)c2)cn1 [Example 40di]
[2]; [7]
  change in vivo at 10 mg/kg: -38%
[3]
  Ki: 1.05 nM
[4]
  Ki: 2.15 nM
P-gp
  efflux ratio at 2 h: 2

## COc1cnc(C(=O)Nc2cc(F)c(F)c([C@]3(C)CC(=O)N(C)C(=N)N3)c2)cn1 [Iminopyrimidinone 40di]
[2]; [7]
  change in vivo at 10 mg/kg: 5%
P-gp
  efflux ratio at 2 h: 3.2
[1]
  Papp A→B at 2 h: 6.5 ×10⁻⁶ cm/s

## CN1C(=N)N[C@](C)(c2cc(-c3ccc(F)c(C#N)c3)cs2)CC1=O [Iminopyrimidinone 46]
P-gp
  efflux ratio at 2 h: 2.6
[1]
  Papp A→B at 2 h: 13.6 ×10⁻⁶ cm/s

## CN1C(=N)N[C@](C)(c2cc(NC(=O)c3ccc(F)cn3)ccc2F)CS1(=O)=O [Example 25]
[2]; [7]
  change in vivo at 10 mg/kg: -49%

## CN1C(=N)N[C@](C)(c2cc(NC(=O)c3ccc(C(F)(F)F)cn3)ccc2F)CS1(=O)=O [Example 26]
[2]; [7]
  change in vivo at 10 mg/kg: -33%
[3]
  Ki: 1.26 nM
[4]
  Ki: 2.46 nM
P-gp
  efflux ratio at 2 h: 2.9

## CN1C(=N)N[C@](C)(c2cc(NC(=O)c3ccc(C(F)(F)F)cn3)ccc2F)CC1=O [Iminopyrimidinone 26]
[2]; [7]
  change in vivo at 10 mg/kg: 0%
P-gp
  efflux ratio at 2 h: 11.3
[1]
  Papp A→B at 2 h: 1.7 ×10⁻⁶ cm/s

## CN1C(=N)N[C@](C)(c2cc(-c3cccc(C#N)c3)cs2)CC1=O [Iminopyrimidinone 45]
[2]; [7]
  change in vivo at 10 mg/kg: -5%
P-gp
  efflux ratio at 2 h: 2.6
[1]
  Papp A→B at 2 h: 17.4 ×10⁻⁶ cm/s

## CN1C(=N)N[C@](C)(c2cc(-c3ccc(F)c(C#N)c3)cs2)CS1(=O)=O [Example 46]
[3]
  Ki: 46 nM
[4]
  Ki: 8.23 nM

## CC#Cc1cncc(-c2csc([C@]3(C)CS(=O)(=O)N(C)C(=N)N3)c2)c1 [Example 47]
[5]; Sample at pH 7.4, 25° C.
  Area %, Day 1 (Unknown peak, RRT 1.49): 1.44 Area %
  Area %, Day 1 (parent peak, RRT 1.00): 98.56 Area %
  Area %, Day 4 (Unknown peak, RRT 1.49): 1.47 Area %
  Area %, Day 4 (parent peak, RRT 1.00): 98.53 Area %
  Area %, Day 6 (Unknown peak, RRT 1.49): 1.47 Area %
  Area %, Day 6 (parent peak, RRT 1.00): 98.53 Area %
  Area %, Initial (Unknown peak, RRT 1.49): 1.45 Area %
  Area %, Initial (parent peak, RRT 1.00): 98.55 Area %
[5]; [8]
  Area %, Day 1 (Unknown peak, RRT 1.49): 1.45 Area %
  Area %, Day 1 (parent peak, RRT 1.00): 98.55 Area %
  Area %, Day 4 (Unknown peak, RRT 1.49): 1.48 Area %
  Area %, Day 4 (parent peak, RRT 1.00): 98.52 Area %
  Area %, Day 6 (Unknown peak, RRT 1.49): 1.48 Area %
  Area %, Day 6 (parent peak, RRT 1.00): 98.52 Area %
  Area %, Initial (Unknown peak, RRT 1.49): 1.47 Area %
  Area %, Initial (parent peak, RRT 1.00): 98.53 Area %
[5]; pH 7.4 buffer at 25° C., after 6 days
  hydrolysis product: 0%
[3]
  Ki: ~6.5 nM
[4]
  Ki: ~1 nM

## CN1C(=N)N[C@](C)(c2cc(-c3cccc(C#N)c3)cs2)CS1(=O)=O [Example 45]
[6]; 4° C., after 6 days
  degredation: 0.93%
[6]; 25° C., after 6 days
  degredation: 7.4%
[6]; 40° C., after 6 days
  degredation: 30.71%
[6]; pH 7.4, 4° C., 1 day
  Assay (Area %): 99.69 Area %
[6]; pH 7.4, 4° C., 2 days
  Assay (Area %): 99.04 Area %
[6]; pH 7.4, 4° C., 6 days
  Assay (Area %): 98.89 Area %
[6]; pH 7.4, 4° C., Initial
  Assay (Area %): 99.82 Area %
[6]; pH 7.4, 25° C., 1 day
  Assay (Area %): 98.45 Area %
[6]; pH 7.4, 25° C., 2 days
  Assay (Area %): 96.07 Area %
[6]; pH 7.4, 25° C., 6 days
  Assay (Area %): 92.43 Area %
[6]; pH 7.4, 25° C., Initial
  Assay (Area %): 99.82 Area %
[6]; pH 7.4, 40° C., 1 day
  Assay (Area %): 96.32 Area %
[6]; pH 7.4, 40° C., 2 days
  Assay (Area %): 89.70 Area %
[6]; pH 7.4, 40° C., 6 days
  Assay (Area %): 69.11 Area %
[6]; pH 7.4, 40° C., Initial
  Assay (Area %): 99.82 Area %
[6]; [9]
  Assay (Area %), degradation symbol: — ((—) stands for > 20% degradation)
[3]
  Ki: 25.6 nM
P-gp
  efflux ratio at 2 h: 1.4

## Cc1ccc(C(=O)Nc2ccc(F)c([C@]3(C)CS(=O)(=O)N(C)C(=N)N3)c2)nc1 [Example 35]
[3]
  Ki: 3 nM
[4]
  Ki: 0.45 nM
P-gp
  efflux ratio at 2 h: 2.1

## CN1C(=N)N[C@](C)(c2cc(-c3cccc(C#N)c3)cs2)CC1=O [Compound Z]
[6]; 4° C., after 1 day
  degredation: 18.3%
[6]; 25° C., time not stated
  degredation: 53.87%
[6]; 40° C., after 1 day
  degredation: 79.93%
[6]; pH 7.4, 4° C., 1 day
  Assay (Area %): 69.84 Area %
[6]; pH 7.4, 4° C., 2 days
  Assay (Area %), degradation symbol: — ((—) stands for > 20% degradation)
[6]; pH 7.4, 4° C., 6 days
  Assay (Area %), degradation symbol: — ((—) stands for > 20% degradation)
[6]; pH 7.4, 4° C., Initial
  Assay (Area %): 88.15 Area %
[6]; pH 7.4, 4° C., last column without time heading
  Assay (Area %), degradation symbol: — ((—) stands for > 20% degradation)
[6]; pH 7.4, 25° C., 1 day
  Assay (Area %): 34.28 Area %
[6]; pH 7.4, 25° C., 2 days
  Assay (Area %), degradation symbol: — ((—) stands for > 20% degradation)
[6]; pH 7.4, 25° C., 6 days
  Assay (Area %), degradation symbol: — ((—) stands for > 20% degradation)
[6]; pH 7.4, 25° C., Initial
  Assay (Area %): 88.15 Area %
[6]; pH 7.4, 25° C., last column without time heading
  Assay (Area %), degradation symbol: — ((—) stands for > 20% degradation)
[6]; pH 7.4, 40° C., 1 day
  Assay (Area %): 8.22 Area %
[6]; pH 7.4, 40° C., 2 days
  Assay (Area %), degradation symbol: — ((—) stands for > 20% degradation)
[6]; pH 7.4, 40° C., 6 days
  Assay (Area %), degradation symbol: — ((—) stands for > 20% degradation)
[6]; pH 7.4, 40° C., Initial
  Assay (Area %): 88.15 Area %
[6]; [9]
  Assay (Area %), degradation symbol: — ((—) stands for > 20% degradation)
